Measurements reported in article PMC8872768, “Discovery of ultrafast myosin, its amino acid sequence, and structural features” (Proceedings of the National Academy of Sciences of the …, 2022).

Key:
CbXI-3 MD = molecular target: T1, CbXI-3 MD (Chara braunii, UniProt A0A388L5N7); experiment: actin-activated Mg2+-ATPase, phosphate release; type: biochemical; details: 2 mM ATP, F-actin 0.125-4 mg/mL, 25 mM KCl, 4 mM MgCl2, pH 7.4, 25 C
T1 construct: gene CBR_g24025; motor domain only, no IQ motifs; baculovirus / insect cells

CbXI-2 MD = molecular target: T2, CbXI-2 MD (Chara braunii, UniProt A0A388M2Q8); experiment: actin-activated Mg2+-ATPase, phosphate release; type: biochemical; details: 2 mM ATP, F-actin 0.125-4 mg/mL, 25 mM KCl, 4 mM MgCl2, pH 7.4, 25 C
T2 construct: gene CBR_g48390; motor domain only, no IQ motifs; baculovirus / insect cells
T2 sequence (A0A388M2Q8 1-744 limits assumed): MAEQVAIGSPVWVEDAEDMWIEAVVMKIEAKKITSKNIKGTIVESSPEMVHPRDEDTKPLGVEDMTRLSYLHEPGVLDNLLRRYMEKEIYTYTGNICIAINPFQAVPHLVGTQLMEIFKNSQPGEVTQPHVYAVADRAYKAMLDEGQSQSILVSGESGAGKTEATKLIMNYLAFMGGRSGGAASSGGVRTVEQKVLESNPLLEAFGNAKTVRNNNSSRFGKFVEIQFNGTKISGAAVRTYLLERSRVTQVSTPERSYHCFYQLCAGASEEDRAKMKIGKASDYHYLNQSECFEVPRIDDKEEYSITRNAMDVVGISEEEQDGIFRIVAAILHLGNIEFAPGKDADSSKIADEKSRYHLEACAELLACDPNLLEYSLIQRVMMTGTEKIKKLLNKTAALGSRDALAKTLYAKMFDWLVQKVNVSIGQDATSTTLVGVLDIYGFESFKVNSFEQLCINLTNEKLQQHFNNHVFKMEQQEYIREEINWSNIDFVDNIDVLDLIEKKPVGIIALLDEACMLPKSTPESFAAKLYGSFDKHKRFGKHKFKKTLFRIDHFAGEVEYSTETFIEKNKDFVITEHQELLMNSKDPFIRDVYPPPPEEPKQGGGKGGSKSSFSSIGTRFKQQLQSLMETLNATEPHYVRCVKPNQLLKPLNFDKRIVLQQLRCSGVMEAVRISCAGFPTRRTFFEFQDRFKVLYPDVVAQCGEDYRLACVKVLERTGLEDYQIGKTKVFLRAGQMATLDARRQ

T1 sequence (A0A388L5N7 1-740 limits assumed): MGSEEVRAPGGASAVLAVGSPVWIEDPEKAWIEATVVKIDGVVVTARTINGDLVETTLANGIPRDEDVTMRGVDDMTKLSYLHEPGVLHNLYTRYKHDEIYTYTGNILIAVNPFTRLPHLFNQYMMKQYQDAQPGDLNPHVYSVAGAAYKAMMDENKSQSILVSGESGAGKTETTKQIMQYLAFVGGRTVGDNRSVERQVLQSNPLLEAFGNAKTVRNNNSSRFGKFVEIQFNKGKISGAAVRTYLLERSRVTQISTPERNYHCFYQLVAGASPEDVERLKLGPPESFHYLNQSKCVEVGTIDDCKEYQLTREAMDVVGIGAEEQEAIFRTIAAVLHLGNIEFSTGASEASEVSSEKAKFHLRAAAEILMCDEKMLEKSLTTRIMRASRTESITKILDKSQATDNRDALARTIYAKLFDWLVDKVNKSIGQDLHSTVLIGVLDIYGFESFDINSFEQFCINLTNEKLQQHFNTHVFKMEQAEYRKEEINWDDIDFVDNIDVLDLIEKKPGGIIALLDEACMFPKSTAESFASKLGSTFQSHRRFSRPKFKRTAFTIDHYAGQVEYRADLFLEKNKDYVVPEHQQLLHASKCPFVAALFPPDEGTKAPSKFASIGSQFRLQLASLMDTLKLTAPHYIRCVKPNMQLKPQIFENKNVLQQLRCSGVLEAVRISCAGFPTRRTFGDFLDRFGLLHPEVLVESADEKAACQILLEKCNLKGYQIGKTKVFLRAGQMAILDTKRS

## Nc1ncnc2c1ncn2[C@@H]1O[C@H](COP(=O)(O)OP(=O)(O)OP(=O)(O)O)[C@@H](O)[C@H]1O [ATP]
CbXI-3 MD
  actin-activated Mg2+-ATPase, phosphate release: The ATPase activities of CbXI-1, CbXI-2, CbXI-3, and CbXI-4 MDs were plotted
CbXI-2 MD
  actin-activated Mg2+-ATPase, phosphate release: The ATPase activities of CbXI-1, CbXI-2, CbXI-3, and CbXI-4 MDs were plotted
